pIC50: −log10 of the molar value.

Our source for the IC50 values is patent US20090062294A1, “HETEROARYL-SUBSTITUTED UREA MODULATORS OF FATTY ACID AMIDE HYDROLASE” (priority 2007, published 2009).

In this assay the target is T1, FAAH (Homo sapiens, UniProt O00519).
T1 sequence (O00519 1-579): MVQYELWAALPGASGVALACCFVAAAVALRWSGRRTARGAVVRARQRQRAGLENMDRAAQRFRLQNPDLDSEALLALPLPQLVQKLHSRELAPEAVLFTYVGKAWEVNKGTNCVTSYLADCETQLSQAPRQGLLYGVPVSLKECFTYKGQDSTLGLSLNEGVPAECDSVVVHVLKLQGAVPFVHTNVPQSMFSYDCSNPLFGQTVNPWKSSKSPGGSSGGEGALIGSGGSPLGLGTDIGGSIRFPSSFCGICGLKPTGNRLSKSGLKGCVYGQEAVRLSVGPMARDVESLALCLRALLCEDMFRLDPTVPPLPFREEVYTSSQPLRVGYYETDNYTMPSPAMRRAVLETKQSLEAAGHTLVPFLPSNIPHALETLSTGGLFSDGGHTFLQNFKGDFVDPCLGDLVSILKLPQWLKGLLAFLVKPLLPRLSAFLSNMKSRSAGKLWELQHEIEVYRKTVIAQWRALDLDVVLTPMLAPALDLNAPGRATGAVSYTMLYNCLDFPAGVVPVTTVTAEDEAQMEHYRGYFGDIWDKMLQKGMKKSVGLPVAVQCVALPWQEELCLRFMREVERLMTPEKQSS
Put plainly: Assay Method 1: FAAH assay, 3H-anandamide hydrolysis in homogenate of T84 cells or SK-N-MC cells transfected with human FAAH. The class given is biochemical. The conditions noted are these: average of results, > = solubility limit or highest concentration tested. Put shortly: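 Hydrolysis of ^3H-anandamide (80 nM final, added last) was measured over 1 h at rt, using test compound with homogenate of T84 cells or human FAAH-transfected SK-N-MC cells. The homogenization buffer was 125 mM Tris, 1 mM EDTA, 0.02% Triton X-100, pH 9. Unbound labelled ethanolamine was passed through charcoal filters and scintillation-counted.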

In the case of `O=C(Nc1noc2ccccc12)N1CCN(Cc2cccc(Oc3ccc(C(F)(F)F)cc3)c2)CC1` [Example 109, N-1,2-Benzisoxazol-3-yl-4-{3-[4-(trifluoromethyl)phenoxy]benzyl}-piperazine-1-carboxamide], the pIC50 is 8.22. `O=C(Nc1noc2cc(F)ccc12)N1CCN(Cc2cccc(Oc3ccc(Cl)cc3)c2)CC1` [Example 245, 4-[3-(4-Chloro-phenoxy)-benzyl]-piperazine-1-carboxylic acid (6-fluoro-benzo[d]isoxazol-3-yl)-amide]: the pIC50 is 7.72.

In general, pIC50 refers to the IC50 on a negative log10 scale, so that one unit is a factor of ten. A low value points to a large IC50.
